Laboratory results taken from article PMC9098913, “In vitro reconstitution of Escherichia coli divisome activation” (Nature Communications, 2022).

Legend:
FtsA self-interaction = assay: Cuvette FRET of FtsA in solution and with lipid vesicles (SUVs); assay type: binding, E. coli; details: for FRET efficiency: Fig. S3c, in cuvette
Method: For in solution FRET experiments, increasing concentrations of Cy3-FtsA and Cy5-FtsA in a 50:50 ratio were mixed in 100 µl reaction buffer (50 mM Tris-HCl [pH7.4], 150 mM KCl and 5 mM MgCl2) inside a quartz cuvette (Hellma® fluorescence cuvettes, ultra Micro). The spectrums were measured using a Spectrophotometer Spectramax M2e Plate- + Cuvette Reader (Molecular Devices). Cy3-FtsA was excited at a wavelength of 520 nm and the resulting emission spectrum was recorded from 550–700 nm in 1 nm steps. To avoid crosstalk of the excitation light, a cutoff filter was set to 550 nm. Addition of ATP or small unilamellar vesicles (SUVs) was measured individually for each concentration. Buffer controls containing the corresponding reagents and only Cy5-FtsA were measured and used as background corrections for measurements with Cy3- and Cy5-FtsA. Background corrected spectra were used to estimate FRET efficiency by E(%)=Fa/Fd+Fa⋅100 , where Fa is the peak of acceptor (=Cy5) emission at 670 nm and Fd the peak of the emission of the donor (=Cy3) spectrum at 565 nm.

FtsZ filaments = assay: FtsZ turnover / lifetime / off-rate, single-molecule tracking; assay type: biochemical, E. coli
Method: Single-molecule experiments were performed as described previously. In short, individual FtsZ proteins were imaged at single-molecule level by adding small amounts of Cy5-labelled FtsZ (200 pM) to a chamber with 0.2 or 0.4 µM FtsA and 1.25 μM Alexa488-FtsZ.
Single molecules of FtsA or FtsZ were tracked using the TrackMate plugin from ImageJ[43]. To obtain the residence time of FtsZ and FtsA, we performed a residence time analysis as described before[40],[47]. Shortly, single molecules were imaged at different acquisition rates (0.1–2 s) and the lifetime of the molecules was extracted from each data set. To account for photobleaching effect, the obtained lifetimes were plotted against the acquisition rate. […] Furthermore, we extracted the diffusion coefficient of FtsA single molecules at increasing concentrations. For this, we filtered the obtained data, by considering only trajectories which are present on the membrane for more than 0.4 s. […] Subsequently, the diffusion coefficient of FtsA molecules was estimated by fitting an MSD curve to each individual trajectory.

FtsA WT: wild-type E. coli actin-homologue FtsA, membrane anchor of FtsZ
FRET efficiency (FtsA self-interaction; + SUVs, 0.05 µM, mean, n = 3): 1.50% | FRET efficiency (FtsA self-interaction; + SUVs, 0.05 µM, replicate 1): 1.29% | FRET efficiency (FtsA self-interaction; + SUVs, 0.05 µM, replicate 2): 1.96% | FRET efficiency (FtsA self-interaction; + SUVs, 0.05 µM, replicate 3): 1.25% | FRET efficiency (FtsA self-interaction; + SUVs, 0.10 µM, mean, n = 3): 6.63% | FRET efficiency (FtsA self-interaction; + SUVs, 0.10 µM, replicate 1): 6.56% | FRET efficiency (FtsA self-interaction; + SUVs, 0.10 µM, replicate 2): 7.39% | FRET efficiency (FtsA self-interaction; + SUVs, 0.10 µM, replicate 3): 5.94% | FRET efficiency (FtsA self-interaction; + SUVs, 0.20 µM, mean, n = 3): 7.59% | FRET efficiency (FtsA self-interaction; + SUVs, 0.20 µM, replicate 1): 8.16% | FRET efficiency (FtsA self-interaction; + SUVs, 0.20 µM, replicate 2): 7.75% | FRET efficiency (FtsA self-interaction; + SUVs, 0.20 µM, replicate 3): 6.87% | FRET efficiency (FtsA self-interaction; without SUVs, 0.05 µM, mean, n = 3): 0.0114% | FRET efficiency (FtsA self-interaction; without SUVs, 0.05 µM, replicate 1): 0.0544% | FRET efficiency (FtsA self-interaction; without SUVs, 0.05 µM, replicate 2): -1.50% | FRET efficiency (FtsA self-interaction; without SUVs, 0.05 µM, replicate 3): 1.48% | FRET efficiency (FtsA self-interaction; without SUVs, 0.10 µM, mean, n = 3): 1.67% | FRET efficiency (FtsA self-interaction; without SUVs, 0.10 µM, replicate 1): 1.71% | FRET efficiency (FtsA self-interaction; without SUVs, 0.10 µM, replicate 2): 2.21% | FRET efficiency (FtsA self-interaction; without SUVs, 0.10 µM, replicate 3): 1.09% | FRET efficiency (FtsA self-interaction; without SUVs, 0.20 µM, mean, n = 3): 2.87% | FRET efficiency (FtsA self-interaction; without SUVs, 0.20 µM, replicate 1): 2.43% | FRET efficiency (FtsA self-interaction; without SUVs, 0.20 µM, replicate 2): 2.56% | FRET efficiency (FtsA self-interaction; without SUVs, 0.20 µM, replicate 3): 3.62% | FRET in solution (FtsA self-interaction; cuvette, no lipid): could not detect any significant FRET signal | FRET with lipid vesicles (FtsA self-interaction; cuvette, presence of lipid vesicles): FRET increased significantly

B1: FtsA R286W (protein)
chain: MIKATDRKLVVGLEIGTAKVAALVGEVLPDGMVNIIGVGSCPSRGMDKGGVNDLESVVKCVQRAIDQAELMADCQISSVYLALSGKHISCQNEIGMVPISEEEVTQEDVENVVHTAKSVRVRDEHRVLHVIPQEYAIDYQEGIKNPVGLSGVRMQAKVHLITCHNDMAKNIVKAVERCGLKVDQLIFAGLASSYSVLTEDERELGVCVVDIGGGTMDIAVYTGGALRHTKVIPYAGNVVTSDIAYAFGTPPSDAEAIKVRHGCALGSIVGKDESVEVPSVGGRPPWSLQRQTLAEVIEPRYTELLNLVNEEILQLQEKLRQQGVKHHLAAGIVLTGGAAQIEGLAACAQRVFHTQVRIGAPLNITGLTDYAQEPYYSTAVGLLHYGKESHLNGEAEVEKRVTASVGSWIKRLNSWLRKEF
modifications: Cy3 or Cy5 at the N-terminus in the labelled form (labelled CLEPTGG peptide conjugated to the 5xGly tag by sortagging); unlabelled protein also used; left off: TwinStrep-SUMO, N-terminal, cleaved | 5x
FtsZ turnover compared to the wild-type protein (FtsZ filaments): slightly decreased
